Reference: the NIST ThermoML archive (doi:10.1016/j.jct.2006.03.009)

Assay: cn = amount concentration of the nth substance listed, in mol/dm3
Conditions: Liquid; for mass density: 7 kPa, Pycnometric method; for speed of sound: 101 kPa

[Cl-].[K+] [potassium chloride] + O
c1 = 1.5
Conditions | mass density [kg/m3] | speed of sound [m/s]
303.15 K | 1061.4 | 1584
308.15 K | 1059.7 | 1590.4
313.15 K | 1057.8 | 1595.8
318.15 K | 1055.6 | 1601.6
323.15 K | 1053.3 | 1606.2

O=[N+]([O-])[O-].[K+] [potassium nitrate] + O
c1 = 1
Conditions | mass density [kg/m3] | speed of sound [m/s]
303.15 K | 1052.9 | 1541.8
308.15 K | 1051.1 | 1550.2
313.15 K | 1049 | 1557.4
318.15 K | 1046.7 | 1563.6
323.15 K | 1044.2 | 1568.4

O=S(=O)([O-])[O-].[K+].[K+] [potassium sulfate] + O
c1 = 0.5
Conditions | mass density [kg/m3] | speed of sound [m/s]
303.15 K | 1059.3 | 1571.2
308.15 K | 1057.9 | 1578.8
313.15 K | 1056.1 | 1587.6
318.15 K | 1054.2 | 1592.6
323.15 K | 1051.9 | 1597.6
